Results on 2 compounds are retold here after patent US10111847B2, “Compounds and methods for modulating vascular injury” (The Regents of the University of California, priority 2012, dated 2018).

Type in all cases: cell-based, human
In series [1] the test system is VCAM-1. In words: TNF-α-stimulated VCAM-1 gene expression in VSMC by qRT-PCR. The conditions noted are these: 100 nM; TNF-α 10 ng/ml 18 hours; P<0.01. As for the experimental part:
Cells are plated onto 6-well plates at 100% confluency in DMEM plus 10% FBS and allowed to attached overnight. Cells are then made quiescent by placing in serum-free media for 48-72 hours prior to start of experiments. Cells are treated with or without RvD1 or RvD2 at the indicated concentrations for one hour followed by co-incubation with cytokine (TNF-α 10 ng/ml) for up to 18 hours. In a separate set of experiments to examine the role of G-protein receptors, VSMCs are exposed to TNF-α and RvD2 (10 nM) as described above, in the presence or absence of pertussis toxin (PTX 100 ng/ml). Total RNA from rabbit sample or cells is isolated with PureLink RNA Mini kit (Ambion Life Technologies, Carlsbad, Calif.) with RNase-free DNase treatment according to manufacturer's protocol. One microgram of total RNA (from either VSMC or rabbit tissue) is used to generate cDNA using High Capacity cDNA Reverse Transcription Kit (Applied Biosystems, Foster City, Calif.) for subsequent RT-PCR reactions. Sybrgreen Amplified DNA is detected by incorporation SYBR Green (Qiagen, Germantown, Md.). Dissociation curve analyses are performed to confirm the specificity of the SYBR Green signal. Data is normalized to at least two reference genes. […]
FIG. 2: RvD1 and RvD2 reduce pro-inflammatory gene expression in VSMC. […] Expression of the cell adhesion molecules VCAM-1 (A) and ICAM-1 (B) was measured by qRT-PCR. […]

In series [2] the test system is IL-1β-stimulated VSMC. In words: Static monocyte (U937) adhesion assay, IL-1β-stimulated VSMC (RvD). The conditions noted are these: IL-1β 1 nM 4 hours; 0.01-100 nM. An excerpt:
Primary cultures of human greater saphenous vein smooth muscle cells (hVSMC) are isolated from saphenous vein discarded at the time of bypass operation in an Institutional Review Board-approved protocol as described by Conte et al. “Regulation of vein graft hyperplasia by survivin, an inhibitor of apoptosis protein.” Arterioscler Thromb Vasc Biol. 2005; 25:2081-2087. VSMCs are maintained in Dulbecco's modified Eagle's medium (DMEM Low Glucose) (HyClone Laboratories Inc, Logan, Utah) containing 10% fetal bovine serum (FBS) (Invitrogen Life Technologies, Grand Island, N.Y.) and used between passages 2-5. Endothelial cells were maintained in Medium 199 supplemented with EBSS (Hyclone Laboratories, Logan, Utah, USA) and Endothelial Cell Growth Supplement. Cells between passages 3-8 were used for the experiments.
RvD. […] Fluorescence measurements (excitation 494 nm, emission 517 nm) of bound monocytes are made with plate reader (Spectra Max M2, Molecular Devices, LLC, Sunnyvale, Calif.).
FIG. 6: RvD1 and RvD2 modulate cell adhesion response of human VSMC to IL-1β. […] Results are shown as relative percent inhibition, expressed as a percentage of the maximal adhesion for the agonist (n=6, results are mean±SEM, **P<0.01, *P<0.05, unpaired t-test).

For series [3], the system named is VSMC. In words: VSMC proliferation assay (Alamar Blue) in 10% serum. As to conditions: 100 nM; standard growth medium (10% serum); P<0.01. An excerpt:
Primary cultures of human greater saphenous vein smooth muscle cells (hVSMC) are isolated from saphenous vein discarded at the time of bypass operation in an Institutional Review Board-approved protocol as described by Conte et al. “Regulation of vein graft hyperplasia by survivin, an inhibitor of apoptosis protein.” Arterioscler Thromb Vasc Biol. 2005; 25:2081-2087. VSMCs are maintained in Dulbecco's modified Eagle's medium (DMEM Low Glucose) (HyClone Laboratories Inc, Logan, Utah) containing 10% fetal bovine serum (FBS) (Invitrogen Life Technologies, Grand Island, N.Y.) and used between passages 2-5. […]
Cell proliferation assay is performed as described by Conte et al. Arterioscler Thromb Vasc Biol. 2005; 25:2081-2087. […] Fluorescence measurements (excitation 506 nm, emission 590 nm) are made on media aliquots; a standard curve is generated by correlating emission intensity with viable cell counts using Trypan Blue exclusion.
FIG. 1: RvD1 and RvD2 attenuate cell adhesion, proliferation, and migration responses of human VSMC in-vitro. […] Results are shown as relative percent inhibition, expressed as a percentage of the maximal adhesion for the agonist (n=6, results are mean±SEM, **P<0.01, *P<0.05, unpaired t-test). […] Results are expressed as percentage change in migration from unstimulated control (no PDGF). […]
In general terms: Resazurin is reduced to fluorescent resorufin, in cell work by metabolically active cells.

The test system of series [4] is VSMC. In words: MTT cell viability assay. As to conditions: 1-100 nM for 8 hours. The protocol: Cells are plated onto 24-well plates and treated with or without RvD1 or RvD2 (1, 10, and 100 nM) for 8 hours. MTT viability assay is performed per manufacturer's instructions (TOX1 assay, Sigma).
FIG. 8: Cell viability is not affected by RvD1 or RvD2. Cells were treated with or without RvD1 or RvD2 (1, 10, and 100 nM) for 8 hours.
A general note: Tetrazolium assays rely on reduction of a dye to a coloured formazan, in cell work by metabolically active cells.

For the compound `CC/C=C\C[C@H](O)/C=C/C=C\C=C\C=C\[C@@H](O)[C@@H](O)C/C=C\CCC(=O)O` [RvD1, Resolvin D1], the “VCAM-1 expression, maximum % reduction” value in series [1] was 69%. Moreover, in series [2], the “inhibition of monocyte adhesion (U937) to IL-1β-stimulated VSMC” value is listed as “dose-dependent inhibition”. The “inhibition of VSMC proliferation, maximum effect” value in series [3] is recorded as 59%. For the same compound, in series [4], the “loss of cell viability (MTT cytotoxicity assay)” value was “did not display significant loss of cell viability”.

As to `CC/C=C\C[C@H](O)[C@H](O)/C=C/C=C/C=C\C=C\[C@@H](O)C/C=C\CCC(=O)O` [RvD2, resolvin D2], the “VCAM-1 expression, maximum % reduction” value in series [1] stood at 76%. In series [2], the “inhibition of monocyte adhesion (U937) to IL-1β-stimulated VSMC” value is given as “dose-dependent inhibition”. Besides, the “inhibition of VSMC proliferation, maximum effect” value in series [3] was 63%. For the same compound, the “loss of cell viability (MTT cytotoxicity assay)” value in series [4] is recorded as “did not display significant loss of cell viability”.
